Experimental data: patent US20180201592A1, “2-AMINO-1,3,4-THIADIAZINE AND 2-AMINO-1,3,4-OXADIAZINE BASED ANTIFUNGAL AGENTS” (F2G Limited, priority 2015, published 2018)

How the values were obtained:
Details in all cases: banded MIC grade
A. terreus 49 [1] = assay: Minimum inhibitory concentration, YAG medium; type: cell-based, Aspergillus terreus
In short: (§1)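 Compound in DMSO (5 mg/mL stock), diluted in water and doubling-diluted; Aspergillus spores grown in YAG medium 24 hrs at 35° C. Growth read as optical density at 485 nm; MIC given in mg/L.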

A. fumigatus = assay: Minimum inhibitory concentration, RPMI medium; type: cell-based
Protocol: (§2) Between 1 and 5 mgs of compound were accurately weighed out into a sterile Eppendorf tube. The compound was dissolved in DMSO to give a solution containing 5 mg/mL. Tubes were stored at −20° C. until required.
(§3) On the day of testing thawed solutions were vortex mixed to ensure homogeneity. 30 μL of solution was removed and added to 570 μL of sterile water in a separate sterile Eppendorf. The thoroughly mixed solution was used to prepare a series of doubling dilutions in water, in a deep well plate. Thirteen replicate plates were prepared using a Minitrak by aspirating 20 μL from each well into eleven clear polystyrene 96 well plates.
(§4) Assays were also performed in RPMI medium (Roswell Park Memorial Media 1640). To perform MIC tests in this medium, dilutions of compounds are prepared in microtitre plates as described above. Fungal strains to be tested are grown and harvested in an identical manner to that described above, and each organism suspension was diluted in RPMI medium, typically containing 2% glucose and 0.135 M MOPS buffer (pH 7.0) to 0.5-2×10^4cfu/mL, rather than in YAG medium. 80 μL of an organism suspension was added to each well of the plate containing drug dilutions.
(§5) This produced MIC plates with a drug range 50-0.05 mg/L and organism inocula of 1-2×10^4 cfu/mL. All plates were incubated for 24-48 hrs at 35° C. Growth was assessed by monitoring the optical density at 485 nm for each well. The MIC of a compound is the lowest drug concentration that inhibits growth of an organism by >80% compared with a drug free control. The following organisms were tested: C. albicans, C. parapsilosis, C. tropicalis, C. glabrata, C. krusei, A. niger, A. fumigatus, A. terreus, A. flavus, A. terreus 49, and A. fumigatus 210.

A. fumigatus 210 [2] = assay: Minimum inhibitory concentration, RPMI medium; type: cell-based
Protocol: as §2, §3, §4, §5

Aspergillus fumigatus = assay: Minimum inhibitory concentration, YAG medium; type: cell-based
In short: (§6)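 Spores from 5-day Sabouraud agar cultures were suspended in YAG medium (1% glucose, 1% ammonium chloride, 0.5% yeast extract) at 1-2×10^4 cfu/mL and exposed to doubling dilutions of compound (50-0.05 mg/L) for 24 hrs at 35° C. MIC was the lowest concentration giving >70% growth inhibition by OD485 versus drug-free control.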

A. flavus = assay: Minimum inhibitory concentration, RPMI medium; type: cell-based
In short: (§7)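 Broth microdilution in RPMI 1640 medium using doubling dilutions in water prepared from a 5 mg/mL DMSO stock. Plates incubated 24-48 hrs at 35° C; growth read as optical density at 485 nm.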

A. terreus = assay: Minimum inhibitory concentration, RPMI medium; type: cell-based
In short: as §7

C. glabrata = assay: Minimum inhibitory concentration, RPMI medium; type: cell-based
In short: as §7

C. parapsilosis = assay: Minimum inhibitory concentration, RPMI medium; type: cell-based
In short: as §7

A. terreus 49 [3] = assay: Minimum inhibitory concentration, RPMI medium; type: cell-based
In short: as §7

A. niger = assay: Minimum inhibitory concentration, RPMI medium; type: cell-based
In short: as §7

C. tropicalis = assay: Minimum inhibitory concentration, RPMI medium; type: cell-based
In short: as §7

C. albicans = assay: Minimum inhibitory concentration, RPMI medium; type: cell-based
In short: as §7

C. krusei = assay: Minimum inhibitory concentration, RPMI medium; type: cell-based
In short: as §7

Aspergillus flavus = assay: Minimum inhibitory concentration, YAG medium; type: cell-based
In short: as §1

Aspergillus terreus = assay: Minimum inhibitory concentration, YAG medium; type: cell-based
In short: as §1

Aspergillus niger = assay: Minimum inhibitory concentration, YAG medium; type: cell-based
In short: as §1

A. fumigatus 210 [4] = assay: Minimum inhibitory concentration, YAG medium; type: cell-based, Aspergillus fumigatus
In short: as §6

| SMILES | MIC grade, A. TERREUS 49, YAG media (A. terreus 49 [1]) | MIC grade, A. FUMIGATUS, RPMI media (A. fumigatus) | MIC grade, A. FUMIGATUS 210, RPMI media (A. fumigatus 210 [2]) | MIC grade, A. FUMIGATUS, YAG media (Aspergillus fumigatus) | MIC grade, A. FLAVUS, RPMI media (A. flavus) | MIC grade, A. TERREUS, RPMI media (A. terreus) | MIC grade, C. GLABRATA, RPMI media (C. glabrata) | MIC grade, C. PARAPSILOSIS, RPMI media (C. parapsilosis) | MIC grade, A. TERREUS 49, RPMI media (A. terreus 49 [3]) | MIC grade, A. NIGER, RPMI media (A. niger) | MIC grade, C. TROPICALIS, RPMI media (C. tropicalis) | MIC grade, C. ALBICANS, RPMI media (C. albicans) | MIC grade, C. KRUSEI, RPMI media (C. krusei) | MIC grade, A. FLAVUS, YAG media (Aspergillus flavus) | MIC grade, A. TERREUS, YAG media (Aspergillus terreus) | MIC grade, A. NIGER, YAG media (Aspergillus niger) | MIC grade, A. FUMIGATUS 210, YAG media (A. fumigatus 210 [4]) |
| --- | --- | --- | --- | --- | --- | --- | --- | --- | --- | --- | --- | --- | --- | --- | --- | --- | --- |
| NC1=NN=C(CCCCOCc2ccccc2C2CC2)CS1 | 2 (2: 1-5 mg/L) | 2 (2: 5-20 mg/L) | 1 (1: ≥20 mg/L) | 2 (2: 1-5 mg/L) | 1 (1: ≥20 mg/L) | 2 (2: 5-20 mg/L) | 2 (2: 5-20 mg/L) | 3 (3: 1-5 mg/L) | 2 (2: 5-20 mg/L) | 1 (1: ≥20 mg/L) | 3 (3: 1-5 mg/L) | 3 (3: 1-5 mg/L) | 2 (2: 5-20 mg/L) | 3 (3: 0.2-1 mg/L) | 2 (2: 1-5 mg/L) | 2 (2: 1-5 mg/L) | 2 (2: 1-5 mg/L) |
| NC1=NN=C(CCCCOCc2cccc(Oc3ccccc3)c2)CS1 | 1 (1: ≥5 mg/L) | 1 (1: ≥20 mg/L) | 1 (1: ≥20 mg/L) | 1 (1: ≥5 mg/L) | 1 (1: ≥20 mg/L) | 1 (1: ≥20 mg/L) | 1 (1: ≥20 mg/L) | 3 (3: 1-5 mg/L) | 1 (1: ≥20 mg/L) | 1 (1: ≥20 mg/L) | 3 (3: 1-5 mg/L) | 3 (3: 1-5 mg/L) | 3 (3: 1-5 mg/L) | 2 (2: 1-5 mg/L) | 1 (1: ≥5 mg/L) | 2 (2: 1-5 mg/L) | 1 (1: ≥5 mg/L) |
| NC1=NN=C(CCCCOCc2ccc(Cl)cc2F)CS1 | 4 (4: <0.2 mg/L) | 2 (2: 5-20 mg/L) | 2 (2: 5-20 mg/L) | 4 (4: <0.2 mg/L) | 4 (4: <1 mg/L) | 3 (3: 1-5 mg/L) | 3 (3: 1-5 mg/L) | 4 (4: <1 mg/L) | 3 (3: 1-5 mg/L) | 3 (3: 1-5 mg/L) | 4 (4: <1 mg/L) | 4 (4: <1 mg/L) | 4 (4: <1 mg/L) | 4 (4: <0.2 mg/L) | 4 (4: <0.2 mg/L) | 3 (3: 0.2-1 mg/L) | 4 (4: <0.2 mg/L) |
| CCCCc1ccc(COCCCCC2=NN=C(N)SC2)cc1 | 2 (2: 1-5 mg/L) | 1 (1: ≥20 mg/L) | 1 (1: ≥20 mg/L) | 1 (1: ≥5 mg/L) | 2 (2: 5-20 mg/L) | 1 (1: ≥20 mg/L) | 2 (2: 5-20 mg/L) | 3 (3: 1-5 mg/L) | 1 (1: ≥20 mg/L) | 2 (2: 5-20 mg/L) | 2 (2: 5-20 mg/L) | 2 (2: 5-20 mg/L) | 3 (3: 1-5 mg/L) | 3 (3: 0.2-1 mg/L) | 2 (2: 1-5 mg/L) | 3 (3: 0.2-1 mg/L) | 1 (1: ≥5 mg/L) |
| NC1=NN=C(CCCCSCc2ccc(Cl)cc2)CS1 | 4 (4: <0.2 mg/L) | 2 (2: 5-20 mg/L) | 2 (2: 5-20 mg/L) | 3 (3: 0.2-1 mg/L) | 3 (3: 1-5 mg/L) | 2 (2: 5-20 mg/L) | 2 (2: 5-20 mg/L) | 3 (3: 1-5 mg/L) | 2 (2: 5-20 mg/L) | 3 (3: 1-5 mg/L) | 3 (3: 1-5 mg/L) | 3 (3: 1-5 mg/L) | 3 (3: 1-5 mg/L) | 4 (4: <0.2 mg/L) | 4 (4: <0.2 mg/L) | 4 (4: <0.2 mg/L) | 3 (3: 0.2-1 mg/L) |
| NC1=NN=C(CCCCOCc2ccccc2CCc2ccccc2)CS1 | 1 (1: ≥5 mg/L) | 1 (1: ≥20 mg/L) | 1 (1: ≥20 mg/L) | 1 (1: ≥5 mg/L) | 1 (1: ≥20 mg/L) | 2 (2: 5-20 mg/L) | 1 (1: ≥20 mg/L) | 2 (2: 5-20 mg/L) | 2 (2: 5-20 mg/L) | 1 (1: ≥20 mg/L) | 2 (2: 5-20 mg/L) | 2 (2: 5-20 mg/L) | 2 (2: 5-20 mg/L) | 2 (2: 1-5 mg/L) | 2 (2: 1-5 mg/L) | 1 (1: ≥5 mg/L) | 1 (1: ≥5 mg/L) |
| NC1=NN=C(CCCCOCc2ccc(Cl)cc2)CS1 | 4 (4: <0.2 mg/L) | 3 (3: 1-5 mg/L) | 2 (2: 5-20 mg/L) | 4 (4: <0.2 mg/L) | 4 (4: <1 mg/L) | 3 (3: 1-5 mg/L) | 3 (3: 1-5 mg/L) | 4 (4: <1 mg/L) | 3 (3: 1-5 mg/L) | 3 (3: 1-5 mg/L) | 3 (3: 1-5 mg/L) | 4 (4: <1 mg/L) | 4 (4: <1 mg/L) | 4 (4: <0.2 mg/L) | 4 (4: <0.2 mg/L) | 4 (4: <0.2 mg/L) | 4 (4: <0.2 mg/L) |
| NC1=NN=C(CCCCCOc2ccccn2)CS1 | 4 (4: <0.2 mg/L) | 4 (4: <1 mg/L) | 3 (3: 1-5 mg/L) | 4 (4: <0.2 mg/L) | 4 (4: <1 mg/L) | 4 (4: <1 mg/L) | 3 (3: 1-5 mg/L) | 4 (4: <1 mg/L) | 4 (4: <1 mg/L) | 4 (4: <1 mg/L) | 4 (4: <1 mg/L) | 4 (4: <1 mg/L) | 4 (4: <1 mg/L) | 4 (4: <0.2 mg/L) | 4 (4: <0.2 mg/L) | 4 (4: <0.2 mg/L) | 4 (4: <0.2 mg/L) |
